Results: patent publication US20140242093A1, “METHODS AND COMPOSITIONS FOR MODULATING THE INNATE IMMUNE RESPONSE AND/OR MYOGENESIS IN A MAMMALIAN SUBJECT” (FRED HUTCHINSON CANCER RESEARCH CENTER, priority 2011, published 2014)

Test system: control human primary myoblasts
Experiment: Expression microarray of primary myoblasts transduced with lentivirus carrying DUX4-fl, DUX4-s or GFP
Description: Primary human myoblasts were collected and cultured as previously described (Snider et al., 2010). Primary myoblasts were maintained at or below 70% confluency for proliferation. For differentiation, cells were allowed to reach 95-100% confluency in growth medium. Once confluency was reached, the cells were changed to differentiation medium (F10 media supplemented with 1% horse serum, 10 μg/mL insulin, and 10 μg/mL transferrin, penicillin/streptomycin) and maintained for 4 days. Human RD cells were grown in DMEM in 10% bovine calf serum (Hyclone) and penicillin/streptomycin. The primary myoblasts were transduced with lentivirus carrying DUX-fl, DUX4- or GFP (MOI=15).
Expression microarrays were performed on the transduced cells at 24 hours after transduction as follows. […] Samples were analyzed by Illumina Human Whole Genome microarrays. Probe intensities were corrected, normalized, and summarized by the Lumi package of Bioconductor (Du et al., 2008). Differentially expressed genes were identified by the LIMMA package of Bioconductor (Wettenhall and Smyth, 2004). Gene set enrichment analysis (GSEA) was performed using the Bioconductor GOstats package (Falcon and Gentleman, 2007).

DUX4-fl: full-length DUX4 protein (SEQ ID NO:110), expressed from lentiviral or pCS2 vectors or in vitro translated
LOC284428 expression fc (Refseq XM_208203.5): 8.023 | LOC285697 expression fc (Refseq XM_210642.1): 3.783 | LOC342934 expression fc (Refseq XM_292724.5): 2.988 | LOC340096 expression fc (Refseq XM_293943.2): 7.382 | LOC389633 expression fc (Refseq XM_372030.4): 1.807 | LOC390031 expression fc (Refseq XM_372343.1): 8.331 | LOC390530 fc (Refseq XM_372543.2): −1.104 | LOC391045 expression fc (Refseq XM_372780.3): 2.166 | LOC391092 expression fc (Refseq XM_372792.2): 1.837 | LOC391742 expression fc (Refseq XM_373056.1): 5.733 | LOC391747 expression fc (Refseq XM_373059.2): 2.789 | LOC391761 expression fc (Refseq XM_373073.2): 3.009 | LOC391764 expression fc (Refseq XM_373076.3): 5.821 | LOC391766 expression fc (Refseq XM_373077.2): 5.724 | LOC391767 expression fc (Refseq XM_373078.1): 5.492 | LOC399937 expression fc (Refseq XM_374917.3): 1.841 | LOC399939 expression fc (Refseq XM_374919.3): 6.931 | LOC401860 expression fc (Refseq XM_377445.3): 4.272 | LOC402199 expression fc (Refseq XM_377875.2): 4.392 | LOC646103 expression fc (Refseq XM_377879.3): 4.658 | LOC402207 expression fc (Refseq XM_377884.2): 4.903 | LOC440040 expression fc (Refseq XM_495873.4): 7.534 | FAM90A9 expression fc (Refseq XM_496956.4): 2.248 | FAM90A12 expression fc (Refseq XM_496961.3): 1.774 | LOC441584 expression fc (Refseq XM_497258.1): 7.781 | LOC441019 expression fc (Refseq XM_498969.2, cultured human skeletal muscle): −2.107 | PEG10 expression fc (Refseq XM_499343.2): 1.935 | LOC642362 expression fc (Refseq XM_925891.1): 8.016 | LOC642538 expression fc (Refseq XM_926027.2): 1.792 | LOC653111 expression fc (Refseq XM_926073.2): 3.139 | LOC642843 expression fc (Refseq XM_926241.2): 2.728 | LOC653192 expression fc (Refseq XM_926437.2): 8.228 | LOC653194 expression fc (Refseq XM_926449.1): 3.633 | LOC643731 expression fc (Refseq XM_927019.1): 1.903 | LOC653506 fc (Refseq XM_927769.1): −1.144 | LOC645137 expression fc (Refseq XM_928167.2): 2.323 | fc of LOC653583 (expression array) (Refseq XM_928224.2): −1.02 | LOC645373 expression fc (Refseq XM_928412.1): 2.891 | LOC645558 expression fc (Refseq XM_928577.2): 4.803 | LOC645669 expression fc (Refseq XM_928680.1): 8.202 | LOC653656 expression fc (Refseq XM_928688.3): 7.897 | LOC653657 expression fc (Refseq XM_928697.2): 7.857 | LOC646698 expression fc (Refseq XM_929644.2): 6.012 | LOC646754 expression fc (Refseq XM_929704.2): 5.11 | LOC646914 expression fc (Refseq XM_929877.1): 2.569 | fc of LOC338758 (expression array) (Refseq XM_931359.2): −1.005 | LOC644739 fc (Refseq XM_933679.1): −1.165 | LOC642127 expression fc (Refseq XM_936272.2): 6.112 | LOC642219 expression fc (Refseq XM_936370.2): 4.799 | LOC285299 expression fc (Refseq XM_936463.2): 2.84 | fc of BEXL1 (expression array) (Refseq XM_936467.2): −1.018 | LOC653978 expression fc (Refseq XM_937424.1): 3.554 | LOC646508 expression fc (Refseq XM_937570.1): 2.498 | LOC648533 expression fc (Refseq XM_937587.1): 2.284 | LOC342933 expression fc (Refseq XM_938208.2): 3.752 | PRAMEF17 expression fc (Refseq XM_938420.2): 4.223 | fc of LOC649425 (expression array) (Refseq XM_938508.1): −0.2065 | LOC649563 expression fc (Refseq XM_938635.2): 2.425 | LOC650167 expression fc (Refseq XM_939249.1): 3.363 | LOC654101 expression fc (Refseq XM_939354.1): 5.034 | MGC61598 expression fc (Refseq XM_939432.1): 2.969 | LOC651308 expression fc (Refseq XM_940443.1): 8.169 | ZC3H5 fc (Refseq XM_940903.2): −1.155 | LOC651816 expression fc (Refseq XM_941060.1): 1.836 | LOC652080 expression fc (Refseq XM_941404.1): 1.987 | LOC652349 expression fc (Refseq XM_941777.1): 2.835 | LOC652433 expression fc (Refseq XM_941875.1): 3.022 | LOC651390 expression fc (Refseq XM_942401.1): 1.937 | LOC727846 expression fc (Refseq XM_001126140.1): 2.175 | LOC730278 fc (Refseq XM_001126471.1): −1.092 | PARP10 expression fc (Refseq XM_001127571.1, cultured human skeletal muscle): −2.064 | fc of LOC730996 (expression array) (Refseq XM_001128017.1): −0.2204 | LOC342900 expression fc (Refseq XM_001129035.1): 7.391 | LOC729368 expression fc (Refseq XM_001130065.2): 5.416 | LOC729458 expression fc (Refseq XM_001130308.2): 8.247 | LOC729694 expression fc (Refseq XM_001131061.1): 4.029 | LOC729698 expression fc (Refseq XM_001131072.1): 3.539 | LOC729700 expression fc (Refseq XM_001131081.1): 4.817 | LOC729706 expression fc (Refseq XM_001131091.1): 4.227 | LOC729724 expression fc (Refseq XM_001131132.1): 3.038 | LOC729731 expression fc (Refseq XM_001131140.1): 5.007
